Like-named read-outs stand apart in the source and are kept apart here.
Legend:
[1] = target: Cdc42 ACT (Cdc42Q61L) (Homo sapiens, UniProt P60953, Q61L); test: Bead-based flow cytometry dose response, BODIPY-FL-GTP binding
Method: (§1) Bead sets for multiplex assays were custom synthesized by Duke Scientific Corp (Fremont, Calif.), but may now be ordered from Thermo/Fisher. […] Negative controls, contained the bead mixture with fluorescent GTP, 0.5 mM unlabeled GTP as a competitor, and 1% DMSO. […] The resulting time-dependent data (one file per plate) were analyzed using IDLQuery software to determine the compound activity in each well. Gating based on forward scatter (FS) and side scatter (SS) parameters was used to identify singlet bead populations. Gating based on FL8 emission distinguishes the beads coated with different proteins, and the median fluorescence per bead population was calculated. […] Baselines were set to 100% based on measurements from the 1% DMSO containing positive controls as further described in PubChem. {PubChem #72}
(§2) Briefly, compounds were serially diluted 1:3 a total of eight times from a starting concentration of 10 mM giving a 9-point dilution series in DMSO. The final concentrations of inhibitors in the assay ranged from 10 nM to 100 μM. Dose-response analyses were examined in the presence of NP-HPS buffer containing: a) 1 mM EDTA; or b) 1 mM MgCl2. […] For assays with EDTA we used one multiplex (Rab7 wt, Rab2 wt, H-Ras wt, H-RasG12V, Cdc42 wt, and Cdc42Q61L) and 3 single-plexes (for Rac1 wt, Rac1 Q61L and GST-GFP).
(§3) GTPase activators were identified on the basis of an increase in fluorescent GTP-binding.
(§4) In experiments including magnesium, six GST-GTPases were assayed simultaneously in a single multiplex (Rac1 wt, Rac1Q61L, RhoA wt, RhoAL63, Cdc42 wt and Cdc42Q61L) and 1 nM BODIPY-FL-GTP binding was measured in the presence or absence of the serial drug dilution series. Each dose response series was run in duplicate.

[2] = target: T1, Cdc42 WT (Homo sapiens, UniProt P60953); test: as above; settings: for EC50: read-out: Cdc42 WT EC50; for Emax: read-out: Cdc42 WT Efficacy
T1 construct: purchased Cytoskeleton
Method: as §1, §2, §3, §4

[3] = system: Cdc42, Rab2, Rab7, activated Rac1Q61L, Rac1, and H-Ras; test: Multiplexed primary screen, fluorescent GTP binding; settings: 10 μM compound
Method: Multiplex screening was performed by measuring GTP-binding activities of six GTPases (Cdc42, Rab2, Rab7, activated Rac1Q61L, Rac1, and H-Ras) simultaneously using special glutathione (GSH) bead sets having varied fluorescence intensities at a fixed wavelength^38. Individual GST-GTPase chimeras were tested against approximately 200,000 small molecules from the Molecular Libraries Small Molecule Repository (MLSMR). Results of fluorescent GTP-binding from the entire primary screen are summarized in the open access Pubchem database as required for projects conducted under the Roadmap Initiative (AID 757-761, 764). […] In total 1877 compounds/194,635 were identified as activators or inhibitors in the primary screen. On the order of 100-500 compounds were found active per GTPase target, enabling an unprecedented, comprehensive evaluation of small molecules active against various Ras-related GTPase family members. Here we report one compound active specifically on Cdc42 and structure activity relationships determined through chemical synthesis.
Multiplex analysis of small GTPases, were performed as we have described previously {Surviladze, 2009}. […] Flow cytometric light scatter and fluorescence emission at 530+/−20 nm (FL1) and 665+/−10 nm (FL8) were collected on a Cyan ADP flow cytometer (Beckman Coulter, Fullerton, Calif.). The resulting time-dependent data (one file per plate) were analyzed using IDLQuery software to determine the compound activity in each well. […] Gating based on FL8 emission distinguishes the beads coated with different proteins, and the median fluorescence per bead population was calculated. […]
For detection of GTP binding to small G-proteins we used bead-based multiplex flow cytometry assay {Surviladze, 2009}. […] Six individual GST-GTPases representative of Rho, Ras and Rab branches of the Ras-related GTPase family (Cdc42 wt, Rac1 wt, Rac1Q61L, Rab2 wt, Rab7 wt, and H-Ras wt) were first bound to GSH-beads of a particular fluorescence intensity. […]

[4] = target: T2, wild-type Cdc42 (Homo sapiens, UniProt P60953); test: Equilibrium binding assay of BODIPY-FL-GTP; settings: 1.5 nM substrate, 1 mM MgCl2; read-out: IC50, inhibition of fluorescent GTP binding to Cdc42 wt
T2 construct: purchased Cytoskeleton
Method: Changes in GTP binding affinity (Kd) and Bmax in the presence of a given compound were measured in multiplex (Cdc42, Cdc42Q61L, Rab2, Rab7, H-Ras and H-RasG12V) and single-plex formats (Rac1, Rac1Q61L and GST-GFP). GTPases and the GST-GFP control were individually bound to glutathione beads overnight at 4° C., washed with HPSE buffer, then resuspended together or assayed individually in the same buffer containing DTT and BSA. Bound GTPases were analyzed by mixing 5 μl protein-bound beads with 2.5-100 nM BODIPY-GTP in a total volume of 10 μl and incubating with rotation at 4° C. for 90 min. DMSO controls and samples treated with 10 μM of each test compound were run in parallel. Bound fluorescent nucleotide was measured using a Cyan ADP flow cytometer. Data were converted to ASCII format using IDLeQuery, exported and analyzed using Prism (GraphPad Software, Inc., San Diego, Calif.) non-linear, one-site binding.
Wild-type GST-Cdc42 (4 μM) was bound to GSH-beads overnight at 4° C. Cdc42 on GSH-beads was depleted of nucleotide by incubating with 10 mM EDTA containing buffer for 20 min at 30° C., washing twice with NP-HPS buffer, then re-suspended in the same buffer containing 1 mM EDTA/or 1 mM MgCl2, 1 mM DTT and 0.1% BSA. […] Samples incubated at 4° C. for 45 min and binding of fluorescent nucleotide to enzyme measured using an Accuri flow cytometer. […]

[5] = Table 6, R3 analogs, read-out: Cdc42 ACT EC50
[6] = Table 5, R2 analogs, read-out: Cdc42 ACT EC50

T1 sequence (P60953 whole entry): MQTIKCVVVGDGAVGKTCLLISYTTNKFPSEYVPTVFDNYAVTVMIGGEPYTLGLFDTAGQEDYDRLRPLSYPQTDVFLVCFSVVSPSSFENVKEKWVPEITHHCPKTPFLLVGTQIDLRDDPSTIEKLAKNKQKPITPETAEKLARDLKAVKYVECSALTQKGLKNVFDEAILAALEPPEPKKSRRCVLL
Sequence of Cdc42 ACT (Cdc42Q61L) (P60953 whole entry Q61L): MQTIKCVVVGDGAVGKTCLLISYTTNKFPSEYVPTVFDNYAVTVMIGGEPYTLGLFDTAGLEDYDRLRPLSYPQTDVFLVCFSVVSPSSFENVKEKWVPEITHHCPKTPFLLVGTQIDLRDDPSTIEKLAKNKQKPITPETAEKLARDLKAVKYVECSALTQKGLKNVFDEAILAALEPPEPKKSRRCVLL
T2 sequence (P60953 whole entry): as the sequence (P60953 whole entry) above

Row | EC50 [1, 5] [µM] | EC50 ([2]; Table 6, R3 analogs) [µM] | Emax ([2]; Table 6, R3 analogs) [%] | EC50 ([2]; Table 5, R2 analogs) [µM] | Emax ([2]; Table 5, R2 analogs) [%] | SMILES | other results
1 | 7.4 | 7.2 | 39 | – | – | NS(=O)(=O)c1ccc(N2N=C(c3ccccc3)CC2c2ccccc2Cl)cc1 (stereo not drawn) [CID 44193697] | –
2 | 3.6 | 2.8 | 69 | – | – | NS(=O)(=O)c1ccc(N2N=C(c3ccccc3)CC2c2ccc(Cl)cc2)cc1 (stereo not drawn) [CID 13927311] | –
3 | 3.6 | 3.3 | 64 | – | – | NS(=O)(=O)c1ccc(N2N=C(c3ccccc3)CC2c2cccc(Cl)c2)cc1 (stereo not drawn) [CID 44193696] | –
4 | 3.7 | 3.3 | 55 | – | – | NS(=O)(=O)c1ccc(N2N=C(c3ccccc3)CC2c2cccc(Br)c2)cc1 (stereo not drawn) [CID 44143703] | –
5 | 13.6 | 16.6 | 55 | – | – | Cc1ccccc1C1CC(c2ccccc2)=NN1c1ccc(S(N)(=O)=O)cc1 (stereo not drawn) [CID 44143704] | –
6 | – | – | – | 7.3 | 47 | COc1ccc(C2CC(c3ccsc3)=NN2c2ccc(S(N)(=O)=O)cc2)cc1 (stereo not drawn) [CID 44143713] | EC50 [1, 6]: 7.3 µM
7 | – | – | – | 1.5 | 50 | COc1ccc(C2CC(c3cccc(OC)c3)=NN2c2ccc(S(N)(=O)=O)cc2)cc1 (stereo not drawn) [CID 44143698, 4-[5-(3-methoxyphenyl)-3-(4-methoxyphenyl)-3,4-dihydropyrazol-2-yl]benzenesulfonamide] | EC50 [1, 6]: 1.6 µM
8 | – | – | – | – | – | O=C(O)c1cccnc1SCCc1ccccc1 [CID888706] | Outcome of primary screening [3]: activator
9 | – | – | – | > 100 | 33 | COc1ccc(C2CC(C(C)(C)C)=NN2c2ccc(S(N)(=O)=O)cc2)cc1 (stereo not drawn) [CID 44193701] | EC50 [1, 6]: > 100 µM
10 | – | – | – | – | – | COc1ccc(C2CC(c3ccccc3)=NN2c2ccc(S(N)(=O)=O)cc2)cc1OC (stereo not drawn) [MLS000862339] | IC50 [4]: 0.4 µM; Outcome of primary screening [3]: specific inhibitors
11 | – | – | – | 6 | 59 | COc1ccc(C2CC(c3ccccc3OC)=NN2c2ccc(S(N)(=O)=O)cc2)cc1 (stereo not drawn) [CID 44143702] | EC50 [1, 6]: 5.5 µM; Cdc42 WT Efficacy ([2]; Table 5, R2 analogs): 59%
12 | 1.7 | 1.1 | 56 | – | – | NS(=O)(=O)c1ccc(N2N=C(c3ccccc3)CC2c2ccc(Br)cc2)cc1 (stereo not drawn) [CID 13927312, 4-[3-(4-bromophenyl)-5-phenyl-3,4-dihydropyrazol-2-yl]benzene sulfonamide] | –
13 | 9.6 | 4.9 | 71 | – | – | NS(=O)(=O)c1ccc(N2N=C(c3ccccc3)CC2c2cccc(F)c2)cc1 (stereo not drawn) [CID 12005853] | –
14 | – | – | – | 2.6 | 38 | COc1ccc(C2=NN(c3ccc(S(N)(=O)=O)cc3)C(c3ccc(OC)cc3)C2)cc1 (stereo not drawn) [CID 15201811] | EC50 [1, 6]: 2.5 µM
15 | > 100 | > 100 | – | – | – | NS(=O)(=O)c1ccc(N2N=C(c3ccccc3)CC2c2ccccc2Br)cc1 (stereo not drawn) [CID 44216862] | –
16 | 4.3 | 4.8 | 53 | – | – | COc1cccc(C2CC(c3ccccc3)=NN2c2ccc(S(N)(=O)=O)cc2)c1 (stereo not drawn) [CID 44143701] | –
17 | 16.8 | 31.6 | 56 | – | – | NS(=O)(=O)c1ccc(N2N=C(c3ccccc3)CC2c2ccccc2)cc1 (stereo not drawn) [CID 2837695] | –
18 | – | – | – | > 100 | 17 | COc1ccc(C2CC(C)=NN2c2ccc(S(N)(=O)=O)cc2)cc1 (stereo not drawn) [CID 14870296] | EC50 [1, 6]: > 100 µM
19 | 78.9 | 22.5 | 45 | – | – | COc1ccccc1C1CC(c2ccccc2)=NN1c1ccc(S(N)(=O)=O)cc1 (stereo not drawn) [CID 42628035] | –

Row | SMILES | EC50 [1, 5] [µM] | EC50 ([2]; Table 6, R3 analogs) [µM] | Emax ([2]; Table 6, R3 analogs) [%] | EC50 ([2]; Table 5, R2 analogs) [µM] | Emax ([2]; Table 5, R2 analogs) [%] | other results
20 | COc1ccc(C2CC(c3cccs3)=NN2c2ccc(S(N)(=O)=O)cc2)cc1 (stereo not drawn) [CID 44143712] | – | – | – | 2.9 | 57 | EC50 [1]: 4 µM
21 | COc1ccc(C2CC(c3ccccc3)=NN2c2ccc(S(N)(=O)=O)cc2)cc1OC (stereo not drawn) [CID 2971684] | – | 5.7 | 75 | – | – | EC50 [1]: 6.1 µM

Source: patent US9642835B2, “Modulators of GTPase and use in relevant treatment” (STC.UNM, priority 2010, dated 2017)
